Results reported in patent publication US10787452B2 (Vertex Pharmaceuticals Incorporated, priority 2012, dated 2020).

Tested on: HCT116 colorectal cancer cells
Assay: Cisplatin sensitization assay (96 h cell viability MTS);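 further: compound concentration needed to lower the Cisplatin-alone IC50 by a set fold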
Assay type: cell-based
Conditions: 96 h MTS, compound plus Cisplatin
Method in brief: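 Viability is measured with MTS reagent, added after 96 h and developed for 1 h at 37° C. Beforehand, cells receive compound and cisplatin simultaneously in a concentration matrix of 2-fold serial dilutions starting at 10 μM final.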

Row | SMILES | Cisplatin Sensitization Assay
1 | CN1CCN(C(=O)N2CCC(c3ccncc3NC(=O)c3c(N)nn4cc(F)cnc34)CC2)CC1 [I-C-17, 2-amino-6-fluoro-N-(4-(1-(4-methylpiperazine-1-carbonyl)piperidin-4-yl)pyridin-3-yl)pyrazolo[1,5-a]pyrimidine-3-carboxamide] | ++ (Compounds with a Cisplatin sensitization value >0.02 μM but <0.2 μM are marked with “++.”)
2 | CN1CCC(S(=O)(=O)N2CCN(c3c(F)cncc3NC(=O)c3c(N)nn4cc(F)cnc34)CC2)CC1 [I-N-175, 2-amino-6-fluoro-N-(5-fluoro-4-(4-((1-methylpiperidin-4-yl)sulfonyl)piperazin-1-yl)pyridin-3-yl)pyrazolo[1,5-a]pyrimidine-3-carboxamide] | +++ (Compounds with a Cisplatin sensitization value of <0.02 μM are marked with “+++.”)
3 | Cn1ccc2c(NC(=O)c3c(N)nn4cc(F)cnc34)cncc21 [I-C-74, 2-amino-6-fluoro-N-(1-methyl-1H-pyrrolo[2,3-c]pyridin-4-yl)pyrazolo[1,5-a]pyrimidine-3-carboxamide] | + (Compounds with a Cisplatin sensitization value >0.2 μM but <5 μM are marked with “+.”)
4 | COCCOc1ccncc1NC(=O)c1c(N)nn2cc(CC#N)cnc12 [I-O-29, 2-amino-6-(cyanomethyl)-N-(4-(2-methoxyethoxy)pyridin-3-yl)pyrazolo[1,5-a]pyrimidine-3-carboxamide] | +++ (Compounds with a Cisplatin sensitization value of <0.02 μM are marked with “+++.”)
5 | Nc1nn2cc(F)cnc2c1C(=O)Nc1cncc(F)c1N1CCC(C(=O)N2CC(F)C2)CC1 [I-G-74, 2-amino-6-fluoro-N-(5-fluoro-4-(4-(3-fluoroazetidine-1-carbonyl)piperidin-1-yl)pyridin-3-yl)pyrazolo[1,5-a]pyrimidine-3-carboxamide] | +++ (Compounds with a Cisplatin sensitization value of <0.02 μM are marked with “+++.”)
6 | COCCn1cncc1-c1ccncc1NC(=O)c1c(N)nn2cc(F)cnc12 [I-C-83, 2-amino-6-fluoro-N-(4-(1-(2-methoxyethyl)-1H-imidazol-5-yl)pyridin-3-yl)pyrazolo[1,5-a]pyrimidine-3-carboxamide] | ++ (Compounds with a Cisplatin sensitization value >0.02 μM but <0.2 μM are marked with “++.”)
7 | Nc1nn2cc(F)cnc2c1C(=O)Nc1cnccc1N1CCN2C(=O)CC[C@H]2C1 [I-N-217, (S)-2-amino-6-fluoro-N-(4-(6-oxohexahydropyrrolo[1,2-a]pyrazin-2(1H)-yl)pyridin-3-yl)pyrazolo[1,5-a]pyrimidine-3-carboxamide] | ++ (Compounds with a Cisplatin sensitization value >0.02 μM but <0.2 μM are marked with “++.”)
8 | Nc1nn2cc(F)cnc2c1C(=O)Nc1cnccc1N1CCC2(CC1)COC2 [I-N-226, N-(4-(2-oxa-7-azaspiro[3.5]nonan-7-yl)pyridin-3-yl)-2-amino-6-fluoropyrazolo[1,5-a]pyrimidine-3-carboxamide] | +++ (Compounds with a Cisplatin sensitization value of <0.02 μM are marked with “+++.”)
9 | CN1CCN(c2c(NC(=O)c3c(N)nn4cc(F)cnc34)cncc2C(F)F)CC1 [I-N-111, 2-amino-N-(5-(difluoromethyl)-4-(4-methylpiperazin-1-yl)pyridin-3-yl)-6-fluoropyrazolo[1,5-a]pyrimidine-3-carboxamide] | ++ (Compounds with a Cisplatin sensitization value >0.02 μM but <0.2 μM are marked with “++.”)
10 | Nc1nn2cc(F)cnc2c1C(=O)Nc1cncc(F)c1N1CCC(C(=O)N2CC(N3CCC3)C2)CC1 [I-G-49, N-(4-(4-([1,3′-biazetidine]-1′-carbonyl)piperidin-1-yl)-5-fluoropyridin-3-yl)-2-amino-6-fluoropyrazolo[1,5-a]pyrimidine-3-carboxamide] | +++ (Compounds with a Cisplatin sensitization value of <0.02 μM are marked with “+++.”)
11 | Nc1nn2cc(F)cnc2c1C(=O)Nc1cnccc1N1CCN2C(=O)COCC2C1 (stereo not shown) [I-N-136, 2-amino-6-fluoro-N-(4-(4-oxohexahydropyrazino[2,1-c][1,4]oxazin-8(1H)-yl)pyridin-3-yl)pyrazolo[1,5-a]pyrimidine-3-carboxamide] | ++ (Compounds with a Cisplatin sensitization value >0.02 μM but <0.2 μM are marked with “++.”)
12 | CN1CCN(C(=O)C2CCN(c3c(F)cncc3NC(=O)c3c(N)nn4cc(F)cnc34)CC2)CC12CC2 [I-G-38, 2-amino-6-fluoro-N-(5-fluoro-4-(4-(4-methyl-4,7-diazaspiro[2.5]octane-7-carbonyl)piperidin-1-yl)pyridin-3-yl)pyrazolo[1,5-a]pyrimidine-3-carboxamide] | +++ (Compounds with a Cisplatin sensitization value of <0.02 μM are marked with “+++.”)
13 | Nc1nn2cc(F)cnc2c1C(=O)Nc1cnccc1-c1ccc(C(=O)N2CCNCC2)cc1 [I-C-44, 2-amino-6-fluoro-N-(4-(4-(piperazine-1-carbonyl)phenyl)pyridin-3-yl)pyrazolo[1,5-a]pyrimidine-3-carboxamide] | +++ (Compounds with a Cisplatin sensitization value of <0.02 μM are marked with “+++.”)
14 | N#CCc1cnc2c(C(=O)Nc3cnccc3O[C@H]3CCNC3)c(N)nn2c1 [I-O-86, (S)-2-amino-6-(cyanomethyl)-N-(4-(pyrrolidin-3-yloxy)pyridin-3-yl)pyrazolo[1,5-a]pyrimidine-3-carboxamide] | ++ (Compounds with a Cisplatin sensitization value >0.02 μM but <0.2 μM are marked with “++.”)
15 | CN1CC2(CCN(c3ccncc3NC(=O)c3c(N)nn4cc(F)cnc34)CC2)CC1=O [I-N-236, 2-amino-6-fluoro-N-(4-(2-methyl-3-oxo-2,8-diazaspiro[4.5]decan-8-yl)pyridin-3-yl)pyrazolo[1,5-a]pyrimidine-3-carboxamide] | +++ (Compounds with a Cisplatin sensitization value of <0.02 μM are marked with “+++.”)
16 | COc1cc(Cl)ncc1NC(=O)c1c(N)nn2cc(CC#N)cnc12 [I-O-27, 2-amino-N-(6-chloro-4-methoxypyridin-3-yl)-6-(cyanomethyl)pyrazolo[1,5-a]pyrimidine-3-carboxamide] | ++ (Compounds with a Cisplatin sensitization value >0.02 μM but <0.2 μM are marked with “++.”)
17 | CN1CC(NC(=O)C2CCN(c3c(F)cncc3NC(=O)c3c(N)nn4cc(F)cnc34)CC2)C1 [I-G-23, 2-amino-6-fluoro-N-(5-fluoro-4-(4-((1-methylazetidin-3-yl)carbamoyl)piperidin-1-yl)pyridin-3-yl)pyrazolo[1,5-a]pyrimidine-3-carboxamide] | +++ (Compounds with a Cisplatin sensitization value of <0.02 μM are marked with “+++.”)
18 | Nc1nn2cc(F)cnc2c1C(=O)Nc1cnccc1C1CCN(S(=O)(=O)C2CC2)CC1 [I-C-47, 2-amino-N-(4-(1-(cyclopropylsulfonyl)piperidin-4-yl)pyridin-3-yl)-6-fluoropyrazolo[1,5-a]pyrimidine-3-carboxamide] | +++ (Compounds with a Cisplatin sensitization value of <0.02 μM are marked with “+++.”)
19 | CN1CCN(CC2CCN(c3c(F)cncc3NC(=O)c3c(N)nn4cc(F)cnc34)CC2)C(=O)C1 [I-N-193, 2-amino-6-fluoro-N-(5-fluoro-4-(4-((4-methyl-2-oxopiperazin-1-yl)methyl)piperidin-1-yl)pyridin-3-yl)pyrazolo[1,5-a]pyrimidine-3-carboxamide] | +++ (Compounds with a Cisplatin sensitization value of <0.02 μM are marked with “+++.”)
20 | Nc1nn2cc(Cl)cnc2c1C(=O)Nc1cnccc1OC1CC2(CNC2)C1 [I-O-72, N-(4-(2-azaspiro[3.3]heptan-6-yloxy)pyridin-3-yl)-2-amino-6-chloropyrazolo[1,5-a]pyrimidine-3-carboxamide] | + (Compounds with a Cisplatin sensitization value >0.2 μM but <5 μM are marked with “+.”)
21 | Cc1ncn(C)c1-c1ccncc1NC(=O)c1c(N)nn2cc(F)cnc12 [I-C-78, 2-amino-N-(4-(1,4-dimethyl-1H-imidazol-5-yl)pyridin-3-yl)-6-fluoropyrazolo[1,5-a]pyrimidine-3-carboxamide] | ++ (Compounds with a Cisplatin sensitization value >0.02 μM but <0.2 μM are marked with “++.”)
22 | CN1CC2(CCN(c3ccncc3NC(=O)c3c(N)nn4cc(F)cnc34)CC2)OC1=O [I-N-216, 2-amino-6-fluoro-N-(4-(3-methyl-2-oxo-1-oxa-3,8-diazaspiro[4.5]decan-8-yl)pyridin-3-yl)pyrazolo[1,5-a]pyrimidine-3-carboxamide] | +++ (Compounds with a Cisplatin sensitization value of <0.02 μM are marked with “+++.”)
23 | Cc1nc(C(=O)N2CCN(C)CC2)ccc1-c1ccncc1NC(=O)c1c(N)nn2cc(F)cnc12 [I-C-39, 2-amino-6-fluoro-N-(2-methyl-6-(4-methylpiperazine-1-carbonyl)-[3,4′-bipyridin]-3′-yl)pyrazolo[1,5-a]pyrimidine-3-carboxamide] | +++ (Compounds with a Cisplatin sensitization value of <0.02 μM are marked with “+++.”)
24 | N#CCc1cnc2c(C(=O)Nc3cnccc3OC3CCCOC3)c(N)nn2c1 (stereo not shown) [I-O-41, 2-amino-6-(cyanomethyl)-N-(4-((tetrahydro-2H-pyran-3-yl)oxy)pyridin-3-yl)pyrazolo[1,5-a]pyrimidine-3-carboxamide] | +++ (Compounds with a Cisplatin sensitization value of <0.02 μM are marked with “+++.”)
25 | Nc1nn2cc(F)cnc2c1C(=O)Nc1cncc(F)c1N1CCC(n2ccnc2)CC1 [I-N-288, N-(4-(4-(1H-imidazol-1-yl)piperidin-1-yl)-5-fluoropyridin-3-yl)-2-amino-6-fluoropyrazolo[1,5-a]pyrimidine-3-carboxamide] | +++ (Compounds with a Cisplatin sensitization value of <0.02 μM are marked with “+++.”)
